# Results as given in patent US7094869B2, “Low molecular weight peptidomimetic growth hormone secretagogues” (Genentech, Inc., priority 1994, dated 2006).
# Non-standard residues stand in square brackets, D forms with d. Residues, ends and D or L forms follow the SMILES beside them. *: point of attachment. Tyr(3-I) = N[C@@H](Cc1ccc(O)c(I)c1)C(=O)O; dNMe2Nal = CN[C@H](Cc1ccc2ccccc2c1)C(=O)O; 2Nal = N[C@@H](Cc1ccc2ccccc2c1)C(=O)O; d2Nal = N[C@H](Cc1ccc2ccccc2c1)C(=O)O; Acetyl(4-pyridyl) = O=C(Cc1ccncc1)*; d(hPhe) = N[C@H](CCc1ccccc1)C(=O)O; NMeF = CN[C@@H](Cc1ccccc1)C(=O)O; dPhg = N[C@@H](C(=O)O)c1ccccc1; NHPhenethyl = c1ccc(CCN*)cc1; dNle = CCCC[C@@H](N)C(=O)O; Ac6c = NC1(C(=O)O)CCCCC1; Inp = O=C(O)C1CCNCC1; Ava = NCCCCC(=O)O
# Target: rat pituitary cells (Rattus norvegicus, UniProt O08725)
# Details: not given
# Description: Pituitaries from ten rats were removed, the posterior pituitary discarded and the anterior pituitary placed in Hanks' Balanced Salt Solution (HBSS: without calcium chloride, w/o magnesium chloride, w/o magnesium sulfate; Gibco) containing 20 mM HEPES (Gibco) and 100 U/ml penicillin streptomycin (PS: JRH Biosciences). Under sterile conditions, pituitaries were rinsed twice then minced into small fragments with a razor blade. […] After the incubation, fragments were triturated to yield small clumps and single cells. The cells were centrifuged 1000× g for 5 min, resuspended, counted and plated at a final cell concentration of 100,000 cells/ml. Incubation media was DME low glucose media w/NaHCO3 (Gibco) containing 20 mM hepes, 100 U/ml PS and 10% FBS (Hyclone A-111-L). Cells were plated at 0.5 ml per well in 48 well plates (Falcon) and incubated at 37° C. in 5% C02 for three days. For challenges to determine release of other pituitary hormones cells were plated at 200,000 cells per ml with 2 ml per well of a Swell plate (Corning). Challenge: A (inip)bbFK-NH2 stock (or other GHRP) concentration of 1 mM was made in DMSO and diluted with warmed media approximately 30 min prior to use. The highest concentration of DMSO in media was 0.1%. Stock solutions (1 mM) of rat GHRH, somatostatin (Sigma) and GHRP antagonist HwkWfK were made fresh in media and diluted appropriately. The media used in all challenges and washing steps was DME low glucose with 20 mM Hepes, 100 U/ml PS, 10% FBS. Media was warmed to 37° C. and gassed by placing it into the incubator prior to challenge. On day three, the media was discarded and fresh media (approximately 1 ml) added for the first of three washes. After the last wash, the plate was placed back in the incubator for a 15 min pre-incubation. Then cells were washed 2× (with warmed and gassed media) and fresh 0.5 ml media were added for the second 15 min. pre-incubation. After the second pre-incubation cells were washed 2× as above and 0.5 ml of control and test solutions were added for a final 15 min incubation. After this incubation, the media were removed for subsequent GH ELISA. GH ELISA: A two-site ELISA was used to determine rat GH concentration in the media. […] After blocking and washing, standard (rat GH reference preparation: Parlow) and challenge media is diluted 1:20 prior to GH assay were added for a 1 hr room temperature incubation. STATISTICS: The mean for each group was determined and analyzed by one-way analysis of variance with a post-hoc Student-Newman-Keuls. Significance is defined as P<0.05. The EC50 was calculated using a 4-parameter curve-fit program (Kaleidagraph). Three to four independent EC50s were used to derive the mean and SEM. RIA of pituitary hormones: LH, FSH, TSH, and Prolactin were determined with commercially available kits from Amersham, and ACTH levels were determined by a RIA kit from ICN. CALCIUM FLUX EXPERIMENT: Pituitary cells were plated on fibronectin (Collaborative Research) coated two-chambered slide wells (Nunc). After four days in monolayer culture cells were rinsed three times with HBSS (Gibco) in 1% BSA and 15 mM HEPES and then incubated for 30 min at 37° C. with 5 μM Indo-1 AM (Molecular Probes, Eugene) in HBSS also containing 1% pluronic F127 (Molecular Probes). The cells were rinsed once and fresh media added for RT incubation. […] C^++ flux was imaged with a Meridian ACAS 570 using stage scanning at 21 second intervals.
# Chain of rat pituitary cells (O08725 whole entry): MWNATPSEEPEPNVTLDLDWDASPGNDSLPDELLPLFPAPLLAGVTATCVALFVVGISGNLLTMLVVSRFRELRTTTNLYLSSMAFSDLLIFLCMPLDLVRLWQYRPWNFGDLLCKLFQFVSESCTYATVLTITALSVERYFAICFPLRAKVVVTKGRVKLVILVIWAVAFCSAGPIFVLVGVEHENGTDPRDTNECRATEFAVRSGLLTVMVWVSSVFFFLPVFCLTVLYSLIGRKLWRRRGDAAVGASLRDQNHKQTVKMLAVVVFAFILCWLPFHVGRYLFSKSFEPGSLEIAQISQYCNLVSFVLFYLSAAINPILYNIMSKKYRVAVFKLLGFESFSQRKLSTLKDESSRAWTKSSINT
row,Compound,EC50 [nM]
1,NCCCC[C@H](NC(=O)[C@H](Cc1ccccc1)NC(=O)[C@@H](Cc1c[nH]c2ccccc12)NC(=O)[C@@H](Cc1c[nH]c2ccccc12)NC(=O)[C@@H](N)Cc1ccc(O)cc1)C(N)=O [Y w w F K amide] (H-Y[dW][dW]FK-NH2),1000
2,"NC(=O)[C@H](Cc1ccccc1)NC(=O)[C@@H](Cc1c[nH]c2ccccc12)NC(=O)[C@@H](Cc1c[nH]c2ccccc12)NC(=O)[C@@H](N)Cc1ccc(O)cc1 [Y w w F amide, reference compound] (H-Y[dW][dW]F-NH2)",1000

# Same assay, conditions: read-out: PIT Cell EC50; Table III, formula IV compounds; GH release, 15 min incubation
row,Compound,EC50 [nM]
1,CNC(=O)[C@@H](Cc1ccccc1)NC(=O)[C@@H](Cc1ccc2ccccc2c1)NC(=O)[C@@H](Cc1ccc2ccccc2c1)NC(=O)C1CCNCC1 [(inip) b b f mam] (H-[Inp][d2Nal][d2Nal][dF]-NHMe),7
2,C[C@H](NC(=O)[C@@H](Cc1ccc2ccccc2c1)NC(=O)[C@@H](Cc1ccc2ccccc2c1)NC(=O)CCCCN)C(=O)N[C@@H](CCCCN)C(N)=O [(Ava) b b A K amide] (H-[Ava][d2Nal][d2Nal]AK-NH2),> 150
3,CN(C)C(=O)[C@H](Cc1ccccc1)NC(=O)[C@@H](Cc1ccc2ccccc2c1)NC(=O)[C@@H](Cc1ccc2ccccc2c1)N(C)C(=O)C1CCNCC1 [(inip) nmb b F dam] (H-[Inp][dNMe2Nal][d2Nal]F-NMe2),6
4,C[C@@H](NC(=O)[C@@H](Cc1ccc2ccccc2c1)NC(=O)CCCCN)C(=O)N[C@@H](Cc1ccccc1)C(=O)N[C@@H](CCCCN)C(N)=O [(Ava) b a F K amide] (H-[Ava][d2Nal][dA]FK-NH2),> 300
5,"CN(C)C(=O)C(Cc1ccccc1)NC(=O)[C@@H](Cc1ccc2ccccc2c1)NC(=O)[C@@H](Cc1ccc2ccccc2c1)NC(=O)C1CCNCC1 (single isomer, unassigned) [(inip) b b f dam]",12
6,NCCCC[C@H](NC(=O)[C@H](Cc1ccccc1)NC(=O)[C@@H](Cc1ccc2ccccc2c1)NC(=O)[C@@H](Cc1ccc2ccccc2c1)NC(=O)C1CCNCC1)C(=O)N[C@@H](Cc1ccc(O)c(I)c1)C(N)=O [(inip) b b F K Y(I) amide] (H-[Inp][d2Nal][d2Nal]FK[Tyr(3-I)]-NH2),0.69
7,NCCCC[C@H](NC(=O)[C@H](Cc1ccccc1)NC(=O)[C@@H](Cc1ccc2ccccc2c1)NC(=O)[C@@H](Cc1ccc2ccccc2c1)NC(=O)Cc1ccncc1)C(N)=O [(pac) b b F K amide] ({Acetyl(4-pyridyl)}-[d2Nal][d2Nal]FK-NH2),100
8,CN(C(=O)[C@@H](Cc1c[nH]c2ccccc12)NC(=O)[C@@H](Cc1c[nH]c2ccccc12)NC(=O)[C@@H](N)Cc1c[nH]cn1)[C@@H](Cc1ccccc1)C(=O)N[C@@H](CCCCN)C(N)=O [H w w nmF K amide] (H-H[dW][dW][NMeF]K-NH2),37.3
9,C[C@@H](NC(=O)CCCCN)C(=O)N[C@H](Cc1ccc2ccccc2c1)C(=O)N[C@@H](Cc1ccccc1)C(=O)N[C@@H](CCCCN)C(N)=O [(Ava) a b F K amide] (H-[Ava][dA][d2Nal]FK-NH2),> 300
10,CN(C(=O)C1CCNCC1)[C@H](Cc1ccc2ccccc2c1)C(=O)N(C)[C@H](Cc1ccc2ccccc2c1)C(=O)N[C@@H](Cc1ccccc1)C(=O)N[C@@H](CCCCN)C(N)=O [(inip) nmb nmb F K amide] (H-[Inp][dNMe2Nal][dNMe2Nal]FK-NH2),1.4
11,NCCCCC(=O)N[C@H](Cc1ccc2ccccc2c1)C(=O)N[C@H](Cc1ccc2ccccc2c1)C(=O)N[C@@H](C(=O)N[C@@H](CCCCN)C(N)=O)c1ccccc1 [(Ava) b b (pG) K amide] (H-[Ava][d2Nal][d2Nal][dPhg]K-NH2),> 100

# Same assay, conditions: read-out: PIT Cell EC50; Table IV, formula III compounds; GH release, 15 min incubation
row,Compound,EC50 [nM]
1,NCCCCC(=O)N[C@H](Cc1ccc2ccccc2c1)C(=O)N[C@@H](Cc1ccccc1)C(=O)N[C@@H](CCCCN)C(N)=O [(Ava) b F K amide] (H-[Ava][d2Nal]FK-NH2),> 300
2,NC(=O)[C@H](Cc1ccccc1)NC(=O)C1(NC(=O)[C@@H](Cc2ccc3ccccc3c2)NC(=O)C2CCNCC2)CCCCC1 [(inip) b Abx F amide] (H-[Inp][d2Nal][Ac6c]F-NH2),> 100
3,NC(=O)[C@H](Cc1ccccc1)NC(=O)[C@@H](Cc1ccc2ccccc2c1)NC(=O)[C@@H](CCc1ccccc1)NC(=O)C1CCNCC1 [(inip) hf b F amide] (H-[Inp][d(hPhe)][d2Nal]F-NH2),27
4,CCCC[C@@H](NC(=O)[C@@H](Cc1ccc2ccccc2c1)NC(=O)C1CCNCC1)C(=O)N[C@@H](Cc1ccccc1)C(N)=O [(inip) b nl F amide] (H-[Inp][d2Nal][dNle]F-NH2),72
5,CCCC[C@@H](NC(=O)C1CCNCC1)C(=O)N[C@H](Cc1ccc2ccccc2c1)C(=O)N[C@@H](Cc1ccccc1)C(N)=O [(inip) nl b F amide] (H-[Inp][dNle][d2Nal]F-NH2),101
6,NC(=O)[C@H](Cc1ccccc1)NC(=O)[C@@H](CCc1ccccc1)NC(=O)[C@@H](CCc1ccccc1)NC(=O)C1CCNCC1 [(inip) hf hf F amide] (H-[Inp][d(hPhe)][d(hPhe)]F-NH2),> 1000
7,NC1CCN(C(=O)[C@@H](Cc2ccc3ccccc3c2)NC(=O)[C@@H](Cc2ccc3ccccc3c2)NC(=O)C2CCNCC2)CC1 [(inip) b b apc],39
8,"O=C(N[C@H](Cc1ccc2ccccc2c1)C(=O)N[C@H](Cc1ccc2ccccc2c1)C(=O)NCCc1ccccc1)C1CCNCC1 [(inip) b b fem, (inip)-DβNal-DβNal-(N-2-phenylethyl) amide] (H-[Inp]-[d2Nal]-[d2Nal]-NHPhenethyl)",2.04
9,"O=C(N[C@H](Cc1ccc2ccccc2c1)C(=O)N[C@H](Cc1ccc2ccccc2c1)C(=O)N[C@@H](Cc1ccc(O)c(I)c1)C(=O)O)C1CCNCC1 [(inip) b b Y(I) acid, (inip)-DβNal-DβNal-(3-I-Tyr)] (H-[Inp][d2Nal][d2Nal][Tyr(3-I)]-OH)",0.1

# Same assay, conditions: read-out: PIT Cell EC50; Table V, formula II compounds; GH release, 15 min incubation
row,Compound,EC50 [nM]
1,CN(C(=O)[C@@H](Cc1ccc2ccccc2c1)NC(=O)C1CCNCC1)[C@@H](CN=[N+]=[N-])Cc1ccc2ccccc2c1 [(inip) b miz],12
2,NC(=O)[C@@H](Cc1ccc2ccccc2c1)NC(=O)[C@@H](Cc1ccc2ccccc2c1)NC(=O)C1CCNCC1 [(inip) b b amide] (H-[Inp]-[d2Nal]-[d2Nal]-NH2),17.6
3,CC(=O)NC[C@@H](Cc1ccc2ccccc2c1)N(C)C(=O)[C@@H](Cc1ccc2ccccc2c1)NC(=O)C1CCNCC1 [(inip) b mbm Ac],90

# Same assay, conditions: read-out: PIT Cell EC50; Table VI, retroinverso compounds of formula V; GH release, 15 min incubation
row,Compound,EC50 [nM]
1,O=C(N[C@@H](Cc1ccc2ccccc2c1)C(=O)N[C@@H](Cc1ccc2ccccc2c1)C(=O)NC1CCNCC1)C1CCNCC1 [(inip) B B api],96
2,"NCCCCC(=O)N[C@H](Cc1ccccc1)C(=O)N[C@@H](Cc1ccc2ccccc2c1)C(=O)N[C@@H](Cc1ccc2ccccc2c1)C(=O)N[C@@H](CCCCN)C(N)=O [(Ava) f B B K amide, (5-Aminovaleryl)-DPhe-βNal-βNal-Lys-amide] (H-[Ava][dF][2Nal][2Nal]K-NH2)",36

# Same assay, conditions: read-out: mean EC50; mean ± SE of independent EC50s
row,Compound,EC50 [nM]
1,NCCCNC(=O)[C@H](Cc1ccc2ccccc2c1)NC(=O)[C@H](Cc1ccc2ccccc2c1)NC(=O)[C@@H](Cc1ccc2ccccc2c1)NC(=O)CCCN [(Ab) b B B ram],2

# Same assay, conditions: read-out: “Pit” Cell EC50; Table II, prior art compounds; GH release, 15 min incubation
row,Compound,EC50 [nM]
1,"C[C@H](N)C(=O)N[C@@H](Cc1c[nH]cn1)C(=O)N[C@H](Cc1ccc2ccccc2c1)C(=O)N[C@@H](C)C(=O)N[C@@H](Cc1c[nH]c2ccccc12)C(=O)N[C@H](Cc1ccccc1)C(=O)N[C@@H](CCCCN)C(N)=O [GHRP 1, Ala-His-D βNal-Ala-Trp-D Phe-Lys-NH2, reference compound] (H-AH[d2Nal]AW[dF]K-NH2)",1.4
